{"source": "patent US20150322083A1", "about": "“(THIENO[2,3-b][1,5]BENZOXAZEPIN-4-YL)PIPERAZIN-1-YL COMPOUNDS AS SELECTIVE 5-HT2A INVERSE AGONISTS” (Eli Lilly and Company, priority 2014, published 2015)", "key": {"[1]": {"biological_target": "T1, 5-HT2A receptor (Rattus norvegicus, UniProt P14842)", "T1 construct": "from tissue; host or cells: rat brain (frontal cortex vs cerebellum), in vivo", "T1 sequence (P14842 whole entry)": "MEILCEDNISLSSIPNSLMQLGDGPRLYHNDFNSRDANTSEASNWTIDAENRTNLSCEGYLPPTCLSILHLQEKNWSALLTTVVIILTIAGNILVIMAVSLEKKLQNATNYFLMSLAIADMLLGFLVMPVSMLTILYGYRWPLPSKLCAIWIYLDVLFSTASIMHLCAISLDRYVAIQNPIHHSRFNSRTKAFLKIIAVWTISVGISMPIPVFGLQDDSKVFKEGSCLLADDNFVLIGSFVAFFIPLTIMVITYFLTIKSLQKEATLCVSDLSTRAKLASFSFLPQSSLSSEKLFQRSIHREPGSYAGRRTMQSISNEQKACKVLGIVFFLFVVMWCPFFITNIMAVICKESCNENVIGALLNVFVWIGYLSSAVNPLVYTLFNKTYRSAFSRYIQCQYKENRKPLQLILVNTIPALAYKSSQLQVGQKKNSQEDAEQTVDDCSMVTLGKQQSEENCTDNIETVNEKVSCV", "assay": "5-HT2A receptor occupancy in vivo (MDL 100907 tracer)", "parameters": "species or system male Sprague-Dawley rats", "conditions": "oral gavage, 1 hr. before tracer", "experimental": "Briefly, male Sprague-Dawley rats (Harlan Sprague-Dawley, Indianapolis, Ind.) weighing approximately 230-280 g are given ad lib access to food and water until the beginning of the 3 hr. experimental protocol. 1 mg/Kg ketanserin (non-selective 5-HT2A antagonist) is used as a positive control to establish assay validity. Test compounds or control are administered by oral gavage in a vehicle comprised of 20% hydroxypropyl beta-cyclodextrin. MDL 100907 ((R)-(+)-α-(2,3-Dimethoxyphenyl)-1-[2-(4-fluorophenyl)ethyl]-4-piperidinemethanol), a selective 5-HT2A antagonist, is used as a tracer. […] It is at the time of tracer administration that receptor occupancy (RO) is considered to be measured. […] The level of MDL 100907 tracer is measured in each cortical and cerebellar sample. RO is calculated using the well-established ratio method which employs a region of high receptor density representative of total binding (frontal cortex) normalized by an area without or with very low levels of receptor (cerebellum). […]\nMDL 100907 Analysis: Cortex and cerebellar samples are weighed and placed in conical centrifuge tubes on ice. […] Standards are prepared by adding known quantities of analyte to brain tissue samples from non-treated rats and processing as described above.+− […]"}, "[2]": {"biological_target": "T2, recombinant rat 5-HT2A receptor (Rattus norvegicus, UniProt P14842)", "T2 construct": "expressed in transfected cells; host or cells: AV12 cells, membranes", "T2 sequence (P14842 whole entry)": "as above", "assay": "5-HT2A inverse agonism, [35S]GTPγS binding to AV12 membranes (rat receptor)", "format": "biochemical", "conditions": "n=2, read-out: EC50, inhibition of intrinsic activity of the 5-HT2A receptor", "experimental": "The inverse agonist activity of compounds of the present invention may be determined by literature recognized assay methods measuring [^35S]GTPγS binding to membranes transfected with 5-HT2A receptors in an in vitro activity assay essentially as described below.\nMembranes are prepared from frozen pellets of whole AV12 cells expressing the human or rat 5-HT2A receptor. Cells are thawed on ice and homogenized in homogenization buffer (50 mM Tris-HCl, 0.5 mM EDTA, 1 tablet/100 mL of complete EDTA free protease inhibitor tablets (Roche Cat. No. 05 056 489 001), pH=7.4) with 20 strokes of a teflon-glass homogenizer attached to a motorized overhead stirrer. Centrifuge membranes at 1000 rpm (aprox. 150×g) for 15 min. at 4° C. […] The final supernatant is discarded and the pellet is resuspended in homogenization buffer and its protein content is determined by the method of Bradford using BSA as the standard. […]\nTest compound is prepared from a 10 mM DMSO stock solution by serial dilution to provide a 10 point concentration response curve, with a final 1% DMSO concentration when added to the assay mixture. […] This mixture is incubated for 3 hr. with constant shaking at room temperature, centrifuged at 300 rpm for 1 min. with no brake and incubated for 3 more hr. before reading in a microplate scintillation counter."}}, "data": [{"smiles": "Cc1ccc2c(c1)Oc1sc(SC(C)C)cc1C(N1CCN(CC(C)(C)C(=O)O)CC1)=N2", "note": "[Example 1, 3-[4-(2-isopropylsulfanyl-8-methyl-thieno[2,3-b][1,5]benzoxazepin-4-yl)piperazin-1-yl]-2,2-dimethyl-propanoic acid]", "values": [{"measurement": "ED50", "setting": "[1]", "value": 0.54, "unit": "mg/kg"}, {"measurement": "EC50", "setting": "[2]", "value": 103, "unit": "nM"}]}]}
